ChEMBL document CHEMBL1201862, “PubChem BioAssay data set” (2004)
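Growth conditions: 96-well plates. Treatment: test compound, 48 hours, 5 concentrations. Analysis: linear interpolation between bracketing concentrations; unreached endpoints set to highest concentration. GI50 = concentration required for 50% inhibition of growth.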 Active and inactive are the calls of the source. No stated cut-off is given here; in the data, active = GI50 up to about 1.1 µM and inactive = higher.

Key:
Test in all cases: inhibition of tumour cell growth, NCI panel, 48 h
786-0 = system: 786-0
A498 = system: A498
A549 = system: A549
ACHN = system: ACHN
CAKI-1 = system: CAKI-1
CCRF-CEM = system: CCRF-CEM
COLO 205 = system: COLO 205
DLD-1 = system: DLD-1
DMS-114 = system: DMS-114
EKVX = system: EKVX
HCC 2998 = system: HCC 2998
HCT-116 = system: HCT-116
HCT-15 = system: HCT-15
HL-60 = system: HL-60
HOP-18 = system: HOP-18
HOP-62 = system: HOP-62
HOP-92 = system: HOP-92
HT-29 = system: HT-29
IGROV-1 = system: IGROV-1
K562 = system: K562
KM-20L2 = system: KM-20L2
LOX IMVI = system: LOX IMVI
LXFL 529 = system: LXFL 529
M14 = system: M14
M19-MEL = system: M19-MEL
MOLT-4 = system: MOLT-4
Malme-3M = system: Malme-3M
NCI-H226 = system: NCI-H226
NCI-H23 = system: NCI-H23
NCI-H460 = system: NCI-H460
OVCAR-3 = system: OVCAR-3
OVCAR-4 = system: OVCAR-4
OVCAR-5 = system: OVCAR-5
OVCAR-8 = system: OVCAR-8
RPMI-8226 = system: RPMI-8226
RXF 393 = system: RXF 393
SF-268 = system: SF-268
SF-295 = system: SF-295
SF-539 = system: SF-539
SK-MEL-28 = system: SK-MEL-28
SK-MEL-5 = system: SK-MEL-5
SN12C = system: SN12C
SNB-19 = system: SNB-19
SNB-75 = system: SNB-75
SNB-78 = system: SNB-78
SR = system: SR
SW-620 = system: SW-620
TK-10 = system: TK-10
UACC-257 = system: UACC-257
UACC-62 = system: UACC-62
UO-31 = system: UO-31
DMS-273 = system: DMS-273
NCI-H522 = system: NCI-H522
SK-OV-3 = system: SK-OV-3
U-251 = system: U-251

CC1(C(=O)O)CCOc2ccccc21 (configuration not stated)
GI50 (786-0): > 100 µM (inactive)
GI50 (A498): > 100 µM (inactive)
GI50 (A549): > 100 µM (inactive)
GI50 (ACHN): > 100 µM (inactive)
GI50 (CAKI-1): > 100 µM (inactive)
GI50 (CCRF-CEM): > 100 µM (inactive)
GI50 (COLO 205): > 100 µM (inactive)
GI50 (DLD-1): > 100 µM (inactive)
GI50 (DMS-114): > 100 µM (inactive)
GI50 (EKVX): > 100 µM (inactive)
GI50 (HCC 2998): > 100 µM (inactive)
GI50 (HCT-116): > 100 µM (inactive)
GI50 (HCT-15): > 100 µM
GI50 (HL-60): > 100 µM (inactive)
GI50 (HOP-18): > 100 µM (inactive)
GI50 (HOP-62): > 100 µM (inactive)
GI50 (HOP-92): > 100 µM (inactive)
GI50 (HT-29): > 100 µM (inactive)
GI50 (IGROV-1): > 100 µM (inactive)
GI50 (K562): > 100 µM (inactive)
GI50 (KM-20L2): > 100 µM (inactive)
GI50 (LOX IMVI): > 100 µM (inactive)
GI50 (LXFL 529): > 100 µM (inactive)
GI50 (M14): > 100 µM (inactive)
GI50 (M19-MEL): > 100 µM (inactive)
GI50 (MOLT-4): > 100 µM (inactive)
GI50 (Malme-3M): > 100 µM (inactive)
GI50 (NCI-H226): > 100 µM (inactive)
GI50 (NCI-H23): > 100 µM (inactive)
GI50 (NCI-H460): > 100 µM (inactive)
GI50 (OVCAR-3): > 100 µM (inactive)
GI50 (OVCAR-4): > 100 µM (inactive)
GI50 (OVCAR-5): > 100 µM (inactive)
GI50 (OVCAR-8): > 100 µM (inactive)
GI50 (RPMI-8226): > 100 µM (inactive)
GI50 (RXF 393): > 100 µM (inactive)
GI50 (SF-268): > 100 µM (inactive)
GI50 (SF-295): > 100 µM (inactive)
GI50 (SF-539): > 100 µM (inactive)
GI50 (SK-MEL-28): > 100 µM (inactive)
GI50 (SK-MEL-5): > 100 µM (inactive)
GI50 (SN12C): > 100 µM (inactive)
GI50 (SNB-19): > 100 µM (inactive)
GI50 (SNB-75): > 100 µM (inactive)
GI50 (SNB-78): > 100 µM (inactive)
GI50 (SR): > 100 µM (inactive)
GI50 (SW-620): > 100 µM (inactive)
GI50 (TK-10): > 100 µM (inactive)
GI50 (UACC-257): > 100 µM (inactive)
GI50 (UACC-62): > 100 µM (inactive)
GI50 (UO-31): > 100 µM (inactive)

CCCCCCCCCOC(=S)NCCCCC
GI50 (786-0): 35.6 µM (inactive)
GI50 (A498): 24.3 µM (inactive)
GI50 (A549): 28.2 µM (inactive)
GI50 (ACHN): 29.1 µM (inactive)
GI50 (CAKI-1): 27.8 µM (inactive)
GI50 (CCRF-CEM): 22.9 µM (inactive)
GI50 (DLD-1): 35.6 µM (inactive)
GI50 (DMS-114): 21.7 µM (inactive)
GI50 (DMS-273): 25.5 µM (inactive)
GI50 (EKVX): 35.2 µM (inactive)
GI50 (HCC 2998): 34.4 µM (inactive)
GI50 (HCT-116): 22.2 µM (inactive)
GI50 (HCT-15): 23.9 µM
GI50 (HL-60): 16.6 µM (inactive)
GI50 (HOP-18): 33.4 µM (inactive)
GI50 (HOP-62): 26.4 µM (inactive)
GI50 (HOP-92): 20.7 µM (inactive)
GI50 (HT-29): 26.8 µM (inactive)
GI50 (IGROV-1): 38.4 µM (inactive)
GI50 (K562): 27 µM (inactive)
GI50 (KM-20L2): 23.8 µM (inactive)
GI50 (LOX IMVI): 15.6 µM (inactive)
GI50 (LXFL 529): 33.3 µM (inactive)
GI50 (M14): 28.6 µM (inactive)
GI50 (M19-MEL): 39.3 µM (inactive)
GI50 (MOLT-4): 19 µM (inactive)
GI50 (Malme-3M): 29.8 µM (inactive)
GI50 (NCI-H23): 26.7 µM (inactive)
GI50 (NCI-H460): 28 µM (inactive)
GI50 (NCI-H522): 20.3 µM (inactive)
GI50 (OVCAR-4): 33.9 µM (inactive)
GI50 (OVCAR-8): 38.7 µM (inactive)
GI50 (RPMI-8226): 19.5 µM (inactive)
GI50 (RXF 393): 19.9 µM (inactive)
GI50 (SF-268): 37.2 µM (inactive)
GI50 (SF-295): 47.1 µM (inactive)
GI50 (SF-539): 20.8 µM (inactive)
GI50 (SK-MEL-28): 38.7 µM (inactive)
GI50 (SK-MEL-5): 21.5 µM (inactive)
GI50 (SK-OV-3): 29.4 µM (inactive)
GI50 (SN12C): 26.2 µM (inactive)
GI50 (SNB-19): 35.1 µM (inactive)
GI50 (SNB-75): 42.3 µM (inactive)
GI50 (SNB-78): 40.6 µM (inactive)
GI50 (SR): 20.5 µM (inactive)
GI50 (SW-620): 32.7 µM (inactive)
GI50 (TK-10): 18.4 µM (inactive)
GI50 (U-251): 21.7 µM (inactive)
GI50 (UACC-257): 24.8 µM (inactive)
GI50 (UACC-62): 29.2 µM (inactive)
GI50 (UO-31): 17.2 µM (inactive)
